The values that follow come from US20230292747A1, “Composition for use in agriculture” (Bayer Aktiengesellschaft, priority 2020, published 2023).

Like-named read-outs stand apart in the source and are kept apart here.

Data set [1] deals with cotton (Gossypium herbaceum). The following applies: cotton plants. The protocol: (§1) • The laboratory colonies of Myzus persicae and Aphis gossypii were reared on pea and cotton plants under controlled conditions 25±1° C. and a 55±5% relative humidity. • Experiments were conducted at RT using pepper (Capsicum annuum) for Myzus persicae and cotton (Gossypium herbaceum) for Aphis gossypii.
• Soft water (Milli-Q water), self made hard water and very hard water collected from the field (sample A) were used in the assays. Self made hard water was prepared by adding magnesium sulfate to the tap water (440 mg MgSO4/1 L tap water) to achieve 25° d (˜445 ppm). […] The water softeners were used in concentrations described in Table 2. First, the softeners were added to Sample A, self made hard and soft water samples and the water hardness was determined with test strips (see Table 3). Next, Flipper (0,5%, corresponding to a fatty acid derivative content of 2.4 g/l) was mixed to the different water plus softener solutions and subsequently the samples were sprayed on plants infected with aphids. […]

The subject of a further data set is pepper (Capsicum annuum). Format: in vivo. The following applies: pepper plants.
For a further data set, the system named is Aphis gossypii. Briefly: Aphid spray bioassay on infected cotton plants, insect mortality on day seven post treatment. The format is in vivo. The method, then:
as §1
(§2) • Soft water (Milli-Q water), self made hard water and very hard water collected from the field (sample A) were used in the assays. Self made hard water was prepared by adding magnesium sulfate to the tap water (440 mg MgSO4/1 L tap water) to achieve 25° d (˜445 ppm). […] The water softeners were used in concentrations described in Table 2. First, the softeners were added to Sample A, self made hard and soft water samples and the water hardness was determined with test strips (see Table 3). Next, Flipper (0,5%, corresponding to a fatty acid derivative content of 2.4 g/l) was mixed to the different water plus softener solutions and subsequently the samples were sprayed on plants infected with aphids. Additionally, another biological product based on fatty acid derivatives (product Neudosan® Neu available from Certis Europe B.V.) was tested in combination with the softener Slox and a softener based on TSCA(in the following named “Coded” (for concentrations see Table 2) in hard vs soft water against aphids as described above. The efficacy of Neudosan (0,5% and 1% corresponding to a fatty acid derivative content of 2.575 g/l and 5,15 g/1) was compared to the efficacy of Flipper (0,5% and 1% corresponding to a fatty acid derivative content of 2.4 g/l and 4,8 g/1) with and without softeners (see Table 5). • Four single-leaf pepper or cotton plants infected with mixed population of Myzus persicae or Aphis gossypii were used in the bioassays. The infected plants were sprayed with the prepared solutions by using an automatic spraying system machine with integrated residue drying and afterwards incubated in a greenhouse chamber under controlled conditions (25±1° C. and 55±5% RH).
(§3) The tests were conducted according to the protocol described in Example 1.

The next data set concerns Myzus persicae. As to the kind of experiment: Aphid spray bioassay on infected pepper plants, insect mortality on day seven post treatment. The following applies: day 7. The format is in vivo. The protocol: as §1, §2, §3
A short description of data set [2]: Measurement of water hardness before and after adding softeners (AQUADUR test strips). The format is physicochemical. The method, then:
as §2

[3] abbreviates: 0.5% Flipper + named softener in self made hard water.
[4] abbreviates: 0.5% Flipper + named softener in soft water.
Where [5] appears, read: 0.5% Flipper + named softener (% printed in row) in self made hard water, cotton, day 7.
Setting [6] is: 0.5% Flipper + named softener (% printed in row) in self made hard water.
Setting [7] is: 0.5% Flipper + named softener (% printed in row) in soft water.
[8] abbreviates: field collected water Sample A (>25 °D before), softener at % printed in row.
Where [9] appears, read: field collected water Sample A (>445 ppm before), converted 1 °D = 17.8 ppm.
[10] abbreviates: self made hard water (25 °D before), softener at % printed in row.
Setting [11] is: self made hard water (445 ppm before), converted 1 °D = 17.8 ppm.
The mark [12] stands for this setting: soft water (0 ppm before), converted 1 °D = 17.8 ppm.
Setting [13] is: soft water (Milli-Q, 0 °D before), softener at % printed in row.

Regarding `O=C(O)CN(CCN(CC(=O)O)CC(=O)O)CC(=O)O` [EDTA, Ethylene diamine tetraacetate], the PTX entry is “slight” in data set [1] (setting [3]), 72.5 (slight in data set [1] (setting [4]), “strong” in the data set on pepper (Capsicum annuum) (setting [3]) and “Strong” in the data set with pepper (Capsicum annuum) (setting [4]). In addition, the “Efficacy of 0.5% Flipper against Aphis gossypii, after adding softeners” value with Aphis gossypii (setting [5]) is given as 65%; in the data set with Aphis gossypii (in vivo) it was 72.5 (slight %. In addition, the “Efficacy of 0.5% Flipper against Myzus persicae, after adding softeners” value came to 81.25% in the data set on Myzus persicae (setting [6]) and 97% in the data set with Myzus persicae (setting [7]). Also, the “Water hardness after adding softener” value was determined as 0 °D in data set [2] (setting [8]); 0 ppm in data set [2] (setting [9]); 0 °D in data set [2] (setting [10]); 0 ppm in data set [2] (setting [11]); 0 ppm in data set [2] (setting [12]); 0 °D in data set [2] (setting [13]).

For the molecule `O=C([O-])CC(O)(CC(=O)[O-])C(=O)[O-].[Na+].[Na+].[Na+]` [TSCA, Trisodium citric acid], the “Efficacy of 0.5% Flipper against Aphis gossypii, after adding softeners” value in the data set on Aphis gossypii (setting [5]) was found to be 55%; in the data set on Aphis gossypii (0.5% Flipper + named softener (% printed in row) in soft water, cotton, day 7), 70%. Moreover, the “Efficacy of 0.5% Flipper against Myzus persicae, after adding softeners” value in the data set with Myzus persicae (setting [6]) amounted to 55%; in the data set on Myzus persicae (setting [7]), 67.5%. Also, the “Water hardness after adding softener” value came out at 20 °D in data set [2] (setting [8]); 356 ppm in data set [2] (setting [9]); 20 °D in data set [2] (setting [10]); 356 ppm in data set [2] (setting [11]); 0 ppm in data set [2] (setting [12]); 0 °D in data set [2] (setting [13]).
